# Assay results published in ChEMBL document CHEMBL4842358, “Design, synthesis and biological evaluation of sphingosine-1-phosphate receptor 2 antagonists as potent 5-FU-resistance reversal agents for the treatment of colorectal cancer” (Eur J Med Chem, 2021).
# Activity calls are given as the source filed them. No cut-off for these calls is given here.
# Legend:
# [1] = AUC (0 to infinity) in Sprague-Dawley rat plasma at 1 mg/kg, iv by LC-MS/MS analysis; assay type: ADME, organism-based; design: time infinity, route intravenous, dose 1 mg/kg
# [2] = target: T1, Sphingosine 1-phosphate receptor 2 (Homo sapiens, UniProt O95136); experiment: Binding affinity to S1PR2 (unknown origin) assessed as association constant measured for 60 secs by surface plasmon resonance assay; details: filed as antagonist, time 60.0 sec
# [3] = Initial plasma concentration in Sprague-Dawley rat at 1 mg/kg, iv by LC-MS/MS analysis; assay type: ADME, organism-based
# [4] = system: Mus musculus; experiment: Downregulation of DPD expression in liver of athymic nude mouse xenografted with human SW620/5-FU at 1.08 mg/kg/day, iv administered for 24 days in presence of 5-FU and measured on day 24 by immunohistochemistry; assay type: functional, organism-based; details: time 24.0 day
# [5] = system: Mus musculus; experiment: Downregulation of DPD expression in liver of athymic nude mouse xenografted with human SW620/5-FU at 1.08 mg/kg/day, iv administered for 24 days in presence of 5-FU and measured on day 24 by Western blot assay; assay type: functional, organism-based; details: time 24.0 day
# [6] = AUC (0 to t) in Sprague-Dawley rat blood at 1 mg/kg, iv measured for 24 hrs by LC-MS/MS analysis; assay type: ADME, organism-based; design: time 24 hrs, dose 1 mg/kg
# [7] = Reversal of 5-FU resistance against human SW620/5-FU cells xenografted in athymic nude mouse assessed as potentiation of 5-FU induced antitumor activity by measuring inhibition of tumor growth at 1.08 mg/kg/day, iv administered for 24 days in presence of 5-FU (reference value: 18.54%); assay type: functional; details: 576 h, time 24 day, read-out: TGI
# [8] = system: Mus musculus; experiment: Downregulation of DPD expression in colon of athymic nude mouse xenografted with human SW620/5-FU cells at 1.08 mg/kg/day, iv administered for 24 days in presence of 5-FU and measured on day 24 by immunohistochemistry; assay type: functional, organism-based; details: time 24.0 day
# [9] = Half life in Sprague-Dawley rat blood at 1 mg/kg, iv measured for 24 hrs by LC-MS/MS analysis; assay type: ADME, organism-based
# [10] = target: T1, Sphingosine 1-phosphate receptor 2; experiment: Antagonist activity at S1PR2 in human SW620/5-FU cells assessed as downregulation of JMJD3 expression at 0.16 to 2.5 uM measured by western blot assay; assay type: functional, cell-based; details: filed as antagonist, dose 0.16-2.5 µM
# [11] = Mean residence time (0 to t) in Sprague-Dawley rat blood at 1 mg/kg, iv measured for 24 hrs by LC-MS/MS analysis; assay type: ADME, organism-based
# [12] = Mean residence time (0 to infinity) in Sprague-Dawley rat plasma at 1 mg/kg, iv by LC-MS/MS analysis; assay type: ADME, organism-based
# [13] = Ratio of drug level in Sprague-Dawley rat blood to plasma at 1 mg/kg, iv measured for 24 hrs by LC-MS/MS analysis; assay type: ADME, organism-based; details: blood and plasma
# [14] = Mean residence time (0 to t) in Sprague-Dawley rat plasma at 1 mg/kg, iv measured for 24 hrs by LC-MS/MS analysis; assay type: ADME, organism-based
# [15] = Downregulation of S1PR2 expression in human HCT-116 cells overexpressing DPD at 0.16 to 2.5 uM cells measured by western blot assay; assay type: ADME, cell-based; details: hct-116, 2.5 µM, dose 0.16-2.5 µM
# [16] = Clearance in Sprague-Dawley rat plasma at 1 mg/kg, iv measured for 24 hrs by LC-MS/MS analysis; assay type: ADME, organism-based
# [17] = Stability in mouse liver microsomes assessed as parent compound remaining at 2 umol/L measured after 60 mins in presence of NADPH regenerating system by LC-MS/MS analysis; assay type: ADME, Microsome; details: dose 2 µmol/L, read-out: Stabilty
# [18] = Stability in rat liver microsomes assessed as parent compound remaining at 2 umol/L measured after 60 mins in presence of NADPH regenerating system by LC-MS/MS analysis; assay type: ADME, Microsome; details: dose 2 µmol/L, read-out: Stabilty
# [19] = system: Mus musculus; experiment: Downregulation of DPD expression in tumour of athymic nude mouse xenografted with human SW620/5-FU at 1.08 mg/kg/day, iv administered for 24 days in presence of 5-FU and measured on day 24 by Western blot assay; assay type: functional, organism-based; details: time 24.0 day
# [20] = Clearance in Sprague-Dawley rat blood at 1 mg/kg, iv measured for 24 hrs by LC-MS/MS analysis; assay type: ADME, organism-based
# [21] = Toxicity in athymic nude mouse xenografted with human SW620/5-FU cells assessed as histopathological changes in liver at 1.08 mg/kg/day, iv administered for 24 days in presence of 5-FU and measured on day 24 by immunohistochemistry; assay type: organism-based; details: in vivo, 576 h, time 24 day
# [22] = Mean residence time (0 to infinity) in Sprague-Dawley rat blood at 1 mg/kg, iv by LC-MS/MS analysis; assay type: ADME, organism-based
# [23] = AUC (0 to t) in Sprague-Dawley rat plasma at 1 mg/kg, iv measured for 24 hrs by LC-MS/MS analysis; assay type: ADME, organism-based; design: dose 1 mg/kg, time 24 hrs
# [24] = AUC (0 to infinity) in Sprague-Dawley rat blood at 1 mg/kg, iv by LC-MS/MS analysis; assay type: ADME, organism-based; design: route intravenous, time infinity, dose 1 mg/kg
# [25] = target: T1, Sphingosine 1-phosphate receptor 2; experiment: Antagonist activity at S1PR2 in human HCT-116 cells overexpressing DPD assessed as downregulation of JMJD3 expression at 0.16 to 2.5 uM measured by western blot assay; assay type: functional, cell-based; details: filed as antagonist, dose 0.16-2.5 µM
# [26] = Downregulation of human S1PR2 expression in human SW620/5-FU cells at 0.16 to 2.5 uM cells measured by western blot assay; assay type: ADME, cell-based; details: dose 0.16-2.5 µM
# [27] = target: T1, Sphingosine 1-phosphate receptor 2; experiment: Antagonist activity at S1PR2 in human SW620/5-FU cells assessed as reduction of DPD-catalyzed 5-FU degradation by measuring intracellular 5-FU level at 2 uM measured after 6 hrs by HPLC-UV analysis; assay type: functional, cell-based; details: filed as antagonist
# [28] = target: T1, Sphingosine 1-phosphate receptor 2; experiment: Antagonist activity at S1PR2 in human SW620/5-FU cells assessed as downregulation of DPD expression by western blot analysis; assay type: functional, cell-based; details: filed as antagonist
# [29] = Half life in Sprague-Dawley rat plasma at 1 mg/kg, iv measured for 24 hrs by LC-MS/MS analysis; assay type: ADME, organism-based
# [30] = system: SW620/5-FU; experiment: Antitumour activity against human SW620/5-FU cells xenografted in athymic nude mouse assessed as inhibition of tumour growth at 1.08 mg/kg/day, iv administered for 24 days; assay type: functional; details: 576 h, time 24 day, read-out: TGI
# [31] = target: T1, Sphingosine 1-phosphate receptor 2; experiment: Binding affinity to S1PR2 (unknown origin) assessed as dissociation constant measured for 60 secs by surface plasmon resonance assay
# [32] = Reversal of 5-FU resistance against human SW620/5-FU cells assessed as inhibition of cell proliferation measured after 72 hrs in presence of 5-FU by MTT assay; assay type: functional, cell-based
# [33] = Volume of distribution in Sprague-Dawley rat plasma at 1 mg/kg, iv measured for 24 hrs by LC-MS/MS analysis; assay type: ADME, organism-based
# [34] = target: T1, Sphingosine 1-phosphate receptor 2; experiment: Antagonist activity at S1PR2 in human SW620/5-FU cells assessed as reduction in dosage of 5-FU at 0.5 to 2.5 uM measured after 6 hrs by HPLC-UV analysis; assay type: functional, cell-based; details: filed as antagonist, dose 0.5-2.5 µM
# [35] = Toxicity in athymic nude mouse xenografted with human SW620/5-FU cells assessed as changes in body weight at 1.08 mg/kg/day, iv administered for 24 days in presence of 5-FU and measured for every 4 days; assay type: organism-based; details: in vivo, 576 h, time 24 day
# [36] = system: Mus musculus; experiment: Downregulation of DPD expression in tumour of athymic nude mouse xenografted with human SW620/5-FU at 1.08 mg/kg/day, iv administered for 24 days in presence of 5-FU and measured on day 24 by immunohistochemistry; assay type: functional, organism-based; details: time 24.0 day
# [37] = target: T1, Sphingosine 1-phosphate receptor 2; experiment: Binding affinity to S1PR2 (unknown origin) measured by surface plasmon resonance assay; details: filed as antagonist
# [38] = system: NCM460; experiment: Cytotoxicity against human NCM460 cells assessed as cell viability measured after 72 hrs in presence of 5-FU by MTT assay; assay type: cell-based; details: NCM460, 72 h
# [39] = Volume of distribution in Sprague-Dawley rat blood at 1 mg/kg, iv measured for 24 hrs by LC-MS/MS analysis; assay type: ADME, organism-based
# [40] = target: T1, Sphingosine 1-phosphate receptor 2; experiment: Antagonist activity at S1PR2 in human HCT-116 cells overexpressing DPD assessed as downregulation of DPD expression by western blot analysis; assay type: functional, cell-based; details: filed as antagonist, dose 0.16-2.5 µM
# [41] = Initial drug concentration in Sprague-Dawley rat blood at 1 mg/kg, iv by LC-MS/MS analysis; assay type: ADME, organism-based
# [42] = system: HCT-116; experiment: Reversal of 5-FU resistance against human HCT-116 cells overexpressing DPD assessed as inhibition of cell proliferation measured after 72 hrs in presence of 5-FU by MTT assay; assay type: functional, cell-based; details: HCT-116, 72 h
# [43] = target: T1, Sphingosine 1-phosphate receptor 2; experiment: Antagonist activity at S1PR2 in human SW620/5-FU cells assessed as reduction of DPD-catalyzed 5-FU degradation by measuring intracellular FBAL level at 2 uM measured after 6 hrs by HPLC-UV analysis; assay type: functional, cell-based; details: filed as antagonist
# T1 sequence (O95136 whole entry): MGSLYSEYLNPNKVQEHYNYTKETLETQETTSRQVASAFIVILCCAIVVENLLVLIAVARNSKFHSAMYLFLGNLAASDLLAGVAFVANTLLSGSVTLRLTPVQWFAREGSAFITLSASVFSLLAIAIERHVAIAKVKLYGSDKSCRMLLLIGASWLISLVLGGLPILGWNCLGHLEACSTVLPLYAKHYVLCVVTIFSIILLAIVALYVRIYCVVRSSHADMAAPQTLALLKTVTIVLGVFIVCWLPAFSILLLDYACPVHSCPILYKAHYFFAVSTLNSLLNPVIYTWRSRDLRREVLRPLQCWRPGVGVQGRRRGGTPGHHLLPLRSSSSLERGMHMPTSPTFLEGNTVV
smiles,measurement,setting,value
O=C(Nc1cc(Cl)nc(Cl)c1)Nc1cc(Cl)nc(Cl)c1,AUC(0-inf),[1],3960 ng·h/mL
same,Ka,[2],5.28 10^6/M/s
same,C0,[3],1110 ng/mL
same,inhibition,[4],Active
same,inhibition,[5],Active
same,AUC(0-t) at 24 h,[6],1890 ng·h/mL
same,inhibition in vivo at 1.08 mg/kg/day,[7],66.2%
same,inhibition,[8],Active
same,half-life,[9],4.4 h
same,inhibition,[10],Active
same,MRT last at 24 h,[11],6 h
same,MRT inf,[12],7 h
same,blood plasma ratio at 24 h,[13],0.484
same,MRT last at 24 h,[14],6.2 h
same,Activity,[15],Non-Toxic
same,clearance,[16],4.17 mL/min/kg
same,"remaining at 1 h, 2 µM",[17],97.9%
same,"remaining at 1 h, 2 µM",[18],95.2%
same,inhibition,[19],Active
same,clearance,[20],8.5 mL/min/kg
same,Activity,[21],Non-Toxic
same,MRT inf,[22],6.7 h
same,AUC(0-t) at 24 h,[23],3840 ng·h/mL
same,AUC(0-inf),[24],1950 ng·h/mL
same,inhibition,[25],Active
same,Activity,[26],Non-Toxic
same,Activity,[27],10 mg/L
same,inhibition,[28],Dose-Dependent Effect
same,half-life,[29],4.7 h
same,inhibition in vivo at 1.08 mg/kg/day,[30],7.5%
same,Dissociation rate constant (koff),[31],6.97 10^-1/s
same,EC50,[32],210 nM
same,Vd,[33],1.7 L/kg
same,inhibition,[34],Active
same,Activity,[35],Non-Toxic
same,inhibition,[36],Active
same,K,[37],1.32 10^-8M
same,EC50,[38],9440 nM
same,Vd,[39],3.3 L/kg
same,inhibition,[40],Dose-Dependent Effect
same,C0,[41],489 ng/mL
same,EC50,[42],180 nM
same,Activity,[43],0.17 mg/L
